Measurements as given in patent US20150144521A1, “STORAGE AIDS COMPRISING PLANT PROTECTANTS AND THEIR USE” (priority 2012, published 2015).

Columns and labels:
[1] = 25° C.; cited from earlier work
potatoes = test: sprouting on continued storage after large-scale treatment; type: in vivo
Protocol: Three to four repeated treatments of the product being stored are carried out in practice at regular time intervals.
A storage aid is therefore also suitable for sprouting suppression in seed potatoes for a limited period of time.
Therefore, seed potatoes must not, in principle, ever be treated directly with a growth regulator.

[2] = losses due to evaporation (FIG. 1); type: physicochemical; settings: 30° C., after 30 days
Excerpt: FIG. 1 is a graph showing losses of isopropyl-N-(m-chlorophenyl) carbamate due to evaporation;

Compound	vapor pressure [1] [mbar]	sprouting ability after conventional intensive hot fumigation (FIG. 5) (potatoes)	losses due to evaporation [2] [%]
CC(C)OC(=O)Nc1ccccc1 [IPC, isopropyl-N-phenyl carbamate]	0.144		
CC(C)OC(=O)Nc1cccc(Cl)c1 [CIPC, isopropyl-N-(m-chlorophenyl)-carbamate]		completely suppressed	0.03
trifluoromethyl-2-thienyl carbamate	5.5		
CCOC(=O)Nc1ccccn1 [ethyl-2-pyridyl carbamate]	0.1		
